# Patent US10487093B2, “Heterocyclic compounds, in particular 2-oxo-4,4,5,5,6,6,7,7-octahydrobenzoxazole derivatives, and their use as antibacterial compounds” (priority 2016, dated 2019)
# How the values were obtained:
# [1] = system: Enterobacter cloacae NCTC 13406; test: MIC, broth microdilution (CLSI) versus planktonic bacteria; format: cell-based; conditions: NCTC13406; Enterobacter cloacae NCTC 13406; 16-20 h; mode of three independent experiments; read-out: MIC, Ecl NCTC 13406
# [2] = system: E. coli MG1655; test: as above; format: cell-based, Escherichia coli; conditions: Escherichia coli, MG1655, read-out: MIC, Ec MG1655 WT
# [3] = system: Staphylococcus aureus ATCC 29213; test: as above; format: cell-based; conditions: ATCC29213; Staphylococcus aureus ATCC 29213; 16-20 h; mode of three independent experiments; read-out: MIC, Sa ATCC 29213
# [4] = system: E. coli MG1655 S83L; format: cell-based, Escherichia coli; conditions: compared to the isogenic parent strain E. coli MG1655; S83L mutation on DNA gyrase subunit GyrA
# [5] = system: Streptococcus pneumoniae ATCC 49619; test: MIC, broth microdilution (CLSI) versus planktonic bacteria; format: cell-based; conditions: ATCC49619; Streptococcus pneumoniae ATCC 49619; 16-20 h; mode of three independent experiments; read-out: MIC, Sp ATCC 49619
# [6] = system: Acinetobacter baumannii NCTC 13420; test: as above; format: cell-based; conditions: NCTC13420; Acinetobacter baumannii NCTC 13420; 16-20 h; mode of three independent experiments; read-out: MIC, Ab NCTC 13420
# [7] = system: Escherichia coli ATCC 25922; test: as above; format: cell-based; conditions: ATCC25922; Escherichia coli ATCC 25922; 16-20 h; mode of three independent experiments; read-out: MIC, Ec ATCC 25922
# [8] = system: E. coli ATCC BAA-2452; test: as above; format: cell-based; conditions: Escherichia coli ATCC BAA-2452; 16-20 h; mode of three independent experiments; read-out: MIC, Ec ATCC BAA 2452
# [9] = system: E. coli NCTC 13476; test: as above; format: cell-based; conditions: NCTC13476; Escherichia coli NCTC 13476; 16-20 h; mode of three independent experiments; read-out: MIC, Ec NCTC 13476
# [10] = system: E. coli MG1655 D87G; format: cell-based, Escherichia coli; conditions: compared to the isogenic parent strain E. coli MG1655; D87G mutation on DNA gyrase subunit GyrA
# [11] = system: Acinetobacter baumannii ATCC 19606; test: MIC, broth microdilution (CLSI) versus planktonic bacteria; format: cell-based; conditions: ATCC19606; Acinetobacter baumannii ATCC 19606; 16-20 h; mode of three independent experiments; read-out: MIC, Ab ATCC 19606
# [12] = system: Haemophilus influenzae ATCC 49247; test: as above; format: cell-based; conditions: ATCC49247; Haemophilus influenzae ATCC 49247; 16-20 h; mode of three independent experiments; read-out: MIC, Hi ATCC 49247
# [13] = system: Pseudomonas aeruginosa ATCC 27853; test: as above; format: cell-based; conditions: ATCC27853; Pseudomonas aeruginosa ATCC 27853; 16-20 h; mode of three independent experiments; read-out: MIC, Pa ATCC 27853
# [14] = system: human hepatic cell line (HepG2 ATCC HB-8065); test: Human cell viability assay (CellTiter-Glo); conditions: Homo sapiens, HepG2, 24 h, read-out: IC50 (μg/mL) HepG2
SMILES,MIC [1] [µg/mL],MIC [2] [µg/mL],MIC [3] [µg/mL],"Fold increase in MIC, E. coli MG1655 S83L [4] [fold]",MIC [5] [µg/mL],MIC [6] [µg/mL],MIC [7] [µg/mL],MIC [8] [µg/mL],MIC [9] [µg/mL],"Fold increase in MIC, E. coli MG1655 D87G [10] [fold]",MIC [11] [µg/mL],MIC [12] [µg/mL],MIC [13] [µg/mL],IC50 [14] [µg/mL]
"CN(CCn1c(=O)ccc2ccc(C#N)cc21)[C@H]1CC[C@H]2[C@@H](C1)OC(=O)N2c1ccc2c(n1)NC(=O)CO2 [Compound 47, 1-(2-{[(3aS,6S,7aR)-2-oxo-3-{3-oxo-2H,3H,4H-pyrido[3,2-b][1,4]oxazin-6-yl}-octahydro-1,3-benzoxazol-6-yl](methyl)amino}ethyl)-2-oxo-1,2-dihydroquinoline-7-carbonitrile]",< 1,< 1,< 1,2,< 1,< 1,< 1,< 1,1 to 10,1,< 1,< 1,< 1,10 to 100
"N#Cc1ccc2ncc(=O)n(CCN[C@H]3CC[C@H]4[C@H](C3)OC(=O)N4c3ccc4c(n3)NC(=O)CO4)c2c1 [Compound 64, 4-(2-{[(3aS,6S,7aS)-2-oxo-3-{3-oxo-2H,3H,4H-pyrido[3,2-b][1,4]oxazin-6-yl}-octahydro-1,3-benzoxazol-6-yl]amino}ethyl)-3-oxo-3,4-dihydroquinoxaline-6-carbonitrile]",< 1,< 1,< 1,0.5,< 1,< 1,< 1,< 1,1 to 10,1,1 to 10,< 1,1 to 10,10 to 100
"COc1ccc2ccc(=O)n(CCN[C@H]3CC[C@H]4[C@H](C3)OC(=O)N4c3ncc4c(n3)NC(=O)CO4)c2n1 [Compound 67, 1-(2-{[(3aS,6S,7aS)-2-oxo-3-{7-oxo-6H,7H,8H-pyrimido[5,4-b][1,4]oxazin-2-yl}-octahydro-1,3-benzoxazol-6-yl]amino}ethyl)-7-methoxy-1,2-dihydro-1,8-naphthyridin-2-one]",1 to 10,< 1,< 1,1,< 1,< 1,< 1,1 to 10,1 to 10,1,1 to 10,< 1,1 to 10,> 100
"N#Cc1ccc2ncc(=O)n(CCN[C@@H]3CC[C@@H]4[C@@H](C3)OC(=O)N4c3ccc4c(n3)NC(=O)CO4)c2c1 [Compound 68, 4-(2-{[(3aR,6R,7aR)-2-oxo-3-{3-oxo-2H,3H,4H-pyrido[3,2-b][1,4]oxazin-6-yl}-octahydro-1,3-benzoxazol-6-yl]amino}ethyl)-3-oxo-3,4-dihydroquinoxaline-6-carbonitrile]",< 1,< 1,< 1,1,< 1,< 1,< 1,< 1,< 1,1,< 1,< 1,1 to 10,10 to 100
"COc1cnc2ccc(=O)n(CCN[C@@H]3CC[C@@H]4[C@@H](C3)OC(=O)N4c3ccc4c(n3)NC(=O)CO4)c2c1 [Compound 69, 1-(2-{[(3aR,6R,7aR)-2-oxo-3-{3-oxo-2H,3H,4H-pyrido[3,2-b][1,4]oxazin-6-yl}-octahydro-1,3-benzoxazol-6-yl]amino}ethyl)-7-methoxy-1,2-dihydro-1,5-naphthyridin-2-one]",< 1,< 1,< 1,1,< 1,< 1,< 1,< 1,< 1,1,< 1,< 1,1 to 10,> 100
